Results on two compounds are retold here after patent US10150969B2, “Methods and compositions to regulate plant transformation susceptibility” (priority 2010, dated 2018).

One test concerns MTF. The settings on record: Col-0 and Bl-1 root segments treated for two days with trans-zeatin.
Test [1] relates to Arabidopsis root segments. Conditions: Col-0 and Bl-1 root segments, 24 h, 1.4 μM trans-zeatin. The method, then:
Root segments of Arabidopsis Bl-1 and MTF-RNAi lines were incubated with A. tumefaciens A208 containing pJZ383 (Ptac::GFP). Root segments were co-cultivated with 10^5 cfu/mL (ecotype Columbia) or 10^8 cfu/mL (ecotype Bl-1) for 24 h in B5 minimal medium. Root segments were rinsed and visualized by epifluorescence microscopy.
Agrobacterium attachment assays were conducted as described herein. Col-0 and Bl-1 root segments were co-cultivated with A281 at 10^6 or 10^8 cfu/mL, respectively, for 24 h in the presence or absence of 1.4 μM trans-zeatin.

Test [2] concerns Arabidopsis root segments. Conditions: A. tumefaciens A348 or A281 (no TZS), 1.4 or 14 μM trans-zeatin.
Protocol: Neither of these strains harbors TZS. Trans-zeatin concentrations representing the range secreted by nopaline-type A. tumefaciens strains were used.
A. tumefaciens was cultured in Yeast Extract-Peptone medium (Lichtenstein et al., 1986) containing the appropriate antibiotics. Root transformation assays were carried out as previously described by Nam et al. with minor modifications (Tenea et al., 2009). MS basal medium lacking phytohormones was used to select for tumors. GUS activity assays were carried out after infection of root segments with A. tumefaciens At849 (Narasimhulu et al., 1996) for 4-6 d, using X-gluc (Jefferson et al., 1987).
(§1) Roots were infected with bacteria at 10^6 cfu/mL (Col-0) or 10^8 cfu/mL (Bl-1). Following infection, root segments were either transferred to MS basal medium containing 100 μg/mL Timentin and incubated for 4-5 weeks before recording the percentage of root segments developing tumors, or used for RNA isolation.
Another test deals with Arabidopsis roots. Conditions: kinetin applied during infection; Agrobacterium tzs mutant; Hwang et al., 2010; cited from earlier work.

Protocol for MTF: Real-time RT-PCR was carried out using total RNA isolated in triplicate from roots of plants grown in liquid B5 medium. PCR was performed in triplicate on an ABI Prism 7500 Sequence Detection System (Applied Biosystems, Foster City, Calif.). Expression levels were calculated by the relative standard curve method (Applied Biosystems) for all transcripts except ORA59, where the comparative cycle threshold method (Applied Biosystems) was used, and normalized to Actin2 transcript levels.
as §1

For the compound `C/C(=C\CNc1ncnc2nc[nH]c12)CO` [trans-zeatin], in the test on MTF, the “decrease of MTF transcript levels” value is 30-60%. For the same compound, the “attachment of A. tumefaciens A281” value in test [1] is given as “increased attachment”. The “increase in transformation efficiency” value in test [2] (Col-0 roots, percentage of root segments developing tumors) is 4-8 fold. Moreover, the increase in susceptibility in test [2] (ecotype Bl-1 roots) is recorded as 2-3 fold.

Consider `c1coc(CNc2ncnc3[nH]cnc23)c1` [kinetin], for which the “susceptibility of roots to transformation” value with Arabidopsis roots is listed as “increased the susceptibility”.
